Experimental data published in US7217827B2, “Halogen-containing aromatic compound” (Nippon Shokubai Co., Ltd., priority 2001, dated 2007).

Experiment: Solubility to dimethylacetoamide at 25° C., solution then left standing for a night
Details: for solubility to dimethylacetoamide: at 25° C.; for precipitation from the dimethylacetoamide solution on standing: solution left standing for a night

Row | SMILES | solubility to dimethylacetoamide | precipitation from the dimethylacetoamide solution on standing
1 | O=C1OC(=O)c2c(F)c(Oc3c(Cl)c(Cl)c(Oc4c(F)c(F)c5c(c4F)C(=O)OC5=O)c(Cl)c3Cl)c(F)c(F)c21 [Example 1, 1,4-bis(3,4-dicarboxytrifluorophenoxy)tetrachlorobenzene dianhydride] | 22 wt. % | precipitations were not found
2 | Nc1c(F)c(N)c(F)c(Cl)c1F [Example III-1, 5-chloro-2,4,6-trifluoro-m-phenylenediamine] | 68 wt. % | precipitations were not found
